Results reported in patent US20020051978A1, “Methods and compositions for the identification, assessment, prevention and therapy of human cancers” (priority 2000, published 2002).
Read-outs that look alike come from different tables or passages of the source.

Legend:
[1] = test system: 60 cancer cell lines (NCI 60 cancer cell line series); assay: NCI-DTP in vitro cancer screen, sulforhodamine B (SRB) growth inhibition, 48 hour exposure; assay type: cell-based, human; parameters: key to sensitivity class Ovarian OVCAR-8 CL6005 / sensitivity class Ovarian SK-OV-3 CL6011 / sensitivity class Prostate DU-145 CL11003 / sensitivity class NSCLC NCI-H522 CL1003 / sensitivity class Ovarian IGROV1 CL6010 / sensitivity class Ovarian OVCAR-4 CL6002 / sensitivity class Prostate PC-3(I) CL11001 / sensitivity class Renal A498 CL9013 / sensitivity class Renal SN12C CL9008: sensitivity class: 1 = Low, 2 = Medium, 3 = High
In short: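 Sixty NCI-DTP cancer lines plated at line-specific densities, dosed on day 1 in duplicate with 5 concentrations at ten-fold intervals. After 48 h exposure, cell mass read by SRB staining; GI50 (50% growth inhibition) taken from dose-response curves and expressed as -log GI50.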

[2] = test system: 60 cancer cell lines (NCI 60 cancer cell line series); conditions: cited from earlier work

## COc1cc([C@@H]2c3cc4c(cc3[C@@H](O[C@@H]3O[C@@H]5CO[C@@H](C)O[C@H]5[C@H](O)[C@H]3O)[C@H]3COC(=O)[C@H]23)OCO4)cc(OC)c1O [Etoposide]
[1]; Breast BT-549 (CL5013)
  classification of cell line as Low(1), Medium(2) or High(3) sensitivity to compound: 2
[1]; Breast HS-578T CL5006
  classification of cell line as Low(1), Medium(2) or High(3) sensitivity to compound: 3
[1]; Breast MCF7(I) (CL5001)
  classification of cell line as Low(1), Medium(2) or High(3) sensitivity to compound: 2
[1]; Breast MCF7/ADRr (CL5002)
  classification of cell line as Low(1), Medium(2) or High(3) sensitivity to compound: 1
[1]; Breast MDA-MB-231 CL5005
  classification of cell line as Low(1), Medium(2) or High(3) sensitivity to compound: 2
[1]; Breast MDA-MB-435 (CL5011)
  classification of cell line as Low(1), Medium(2) or High(3) sensitivity to compound: 2
[1]; Breast MDA-N CL5012
  classification of cell line as Low(1), Medium(2) or High(3) sensitivity to compound: 3
[1]; Breast T-47D (CL5014)
  classification of cell line as Low(1), Medium(2) or High(3) sensitivity to compound: 3
[1]; CNS SF-268 CL12014
  classification of cell line as Low(1), Medium(2) or High(3) sensitivity to compound: 2
[1]; CNS SF-295 CL12015
  classification of cell line as Low(1), Medium(2) or High(3) sensitivity to compound: 2
[1]; CNS SF-539 CL12016
  classification of cell line as Low(1), Medium(2) or High(3) sensitivity to compound: 2
[1]; CNS SNB-19 (CL12002)
  classification of cell line as Low(1), Medium(2) or High(3) sensitivity to compound: 2
[1]; CNS SNB-75(I) CL12005
  classification of cell line as Low(1), Medium(2) or High(3) sensitivity to compound: 2
[1]; CNS U251(I) CL12009
  classification of cell line as Low(1), Medium(2) or High(3) sensitivity to compound: 2
[1]; Colon COLO-250 CL4010
  classification of cell line as Low(1), Medium(2) or High(3) sensitivity to compound: 1
[1]; Colon HCC-2998 (CL4002)
  classification of cell line as Low(1), Medium(2) or High(3) sensitivity to compound: 2
[1]; Colon HCT-15 CL4015
  classification of cell line as Low(1), Medium(2) or High(3) sensitivity to compound: 2
[1]; Colon HCT-116 (CL4003)
  classification of cell line as Low(1), Medium(2) or High(3) sensitivity to compound: 2
[1]; Colon HT29(I) CL4001
  classification of cell line as Low(1), Medium(2) or High(3) sensitivity to compound: 1
[1]; Colon KM12 (CL4017)
  classification of cell line as Low(1), Medium(2) or High(3) sensitivity to compound: 2
[1]; Colon SW-620 (CL4009)
  classification of cell line as Low(1), Medium(2) or High(3) sensitivity to compound: 2
[1]; Leukemia CCRF-CEM(I) (CL7003)
  classification of cell line as Low(1), Medium(2) or High(3) sensitivity to compound: 2
[1]; Leukemia HL-60(I) (CL7008)
  classification of cell line as Low(1), Medium(2) or High(3) sensitivity to compound: 2
[1]; Leukemia K562(I) CL7005
  classification of cell line as Low(1), Medium(2) or High(3) sensitivity to compound: 2
[1]; Leukemia MOLT-4 (CL7006)
  classification of cell line as Low(1), Medium(2) or High(3) sensitivity to compound: 3
[1]; Leukemia RPMI-8226(I) (CL7010)
  classification of cell line as Low(1), Medium(2) or High(3) sensitivity to compound: 2
[1]; Leukemia SR CL7019
  classification of cell line as Low(1), Medium(2) or High(3) sensitivity to compound: 3
[1]; Melanoma LOX IMVI CL10001
  classification of cell line as Low(1), Medium(2) or High(3) sensitivity to compound: 2
[1]; Melanoma M14 (CL10014)
  classification of cell line as Low(1), Medium(2) or High(3) sensitivity to compound: 3
[1]; Melanoma MALME-3M CL10002
  classification of cell line as Low(1), Medium(2) or High(3) sensitivity to compound: 2
[1]; cell line NSCLC NCI-H23(I), CL1001
  sensitivity class NSCLC NCI-H23(I) CL1001: 2
[1]; cell line NSCLC NCI-H332M, CL1017
  sensitivity class NSCLC NCI-H332M CL1017: 1
[1]; cell line NSCLC NCI-H460, CL1021
  sensitivity class NSCLC NCI-H460 CL1021: 3
[1]; cell line NSCLC NCI-H522, CL1003
  sensitivity class NSCLC NCI-H522 CL1003: 2
[1]; cell line Ovarian IGROV1, CL6010
  sensitivity class Ovarian IGROV1 CL6010: 1
[1]; cell line Ovarian OVCAR-3, CL6001
  sensitivity class Ovarian OVCAR-3 CL6001: 1
[1]; cell line Ovarian OVCAR-4, CL6002
  sensitivity class Ovarian OVCAR-4 CL6002: 1
[1]; cell line Ovarian OVCAR-5, CL6003
  sensitivity class Ovarian OVCAR-5 CL6003: 1
[1]; cell line Ovarian OVCAR-8, CL6005
  sensitivity class Ovarian OVCAR-8 CL6005: 2
[1]; cell line Ovarian SK-OV-3, CL6011
  sensitivity class Ovarian SK-OV-3 CL6011: 2
[1]; cell line Prostate DU-145, CL11003
  sensitivity class Prostate DU-145 CL11003: 3
[1]; cell line Prostate PC-3(I), CL11001
  sensitivity class Prostate PC-3(I) CL11001: 3
[1]; cell line Renal 786-O, CL9018
  sensitivity class Renal 786-O CL9018: 2
[1]; cell line Renal A498, CL9013
  sensitivity class Renal A498 CL9013: 2
[1]; cell line Renal ACHN, CL9023
  sensitivity class Renal ACHN CL9023: 3
[1]; cell line Renal CAKI-1, CL9015
  sensitivity class Renal CAKI-1 CL9015: 2
[1]; cell line Renal RXF-393, CL9016
  sensitivity class Renal RXF-393 CL9016: 2
[1]; cell line Renal SN12C, CL9008
  sensitivity class Renal SN12C CL9008: 2
[1]; cell line Renal TK10, CL9024
  sensitivity class Renal TK10 CL9024: 2
[1]; cell line Renal UO-31, CL9004
  sensitivity class Renal UO-31 CL9004: 1
[2]; Breast BT-549 (CL5013)
  -Log (GI50): 5.6
[2]; Breast HS-578T CL5006
  -Log (GI50): 6.1
[2]; Breast MCF7(I) (CL5001)
  -Log (GI50): 5.4
[2]; Breast MCF7/ADRr (CL5002)
  -Log (GI50): 3.9
[2]; Breast MDA-MB-231 CL5005
  -Log (GI50): 5.8
[2]; Breast MDA-MB-435 (CL5011)
  -Log (GI50): 4.5
[2]; Breast MDA-N CL5012
  -Log (GI50): 6.0
[2]; Breast T-47D (CL5014)
  -Log (GI50): 6.0
[2]; CNS SF-268 CL12014
  -Log (GI50): 4.8
[2]; CNS SF-295 CL12015
  -Log (GI50): 5.0
[2]; CNS SF-539 CL12016
  -Log (GI50): 5.2
[2]; CNS SNB-19 (CL12002)
  -Log (GI50): 4.8
[2]; CNS SNB-75(I) CL12005
  -Log (GI50): 4.8
[2]; CNS U251(I) CL12009
  -Log (GI50): 5.2
[2]; Colon COLO-250 CL4010
  -Log (GI50): 4.2
[2]; Colon HCC-2998 (CL4002)
  -Log (GI50): 4.7
[2]; Colon HCT-15 CL4015
  -Log (GI50): 4.5
[2]; Colon HCT-116 (CL4003)
  -Log (GI50): 4.6
[2]; Colon HT29(I) CL4001
  -Log (GI50): 4.2
[2]; Colon KM12 (CL4017)
  -Log (GI50): 4.5
[2]; Colon SW-620 (CL4009)
  -Log (GI50): 4.9
[2]; Leukemia CCRF-CEM(I) (CL7003)
  -Log (GI50): 5.6
[2]; Leukemia HL-60(I) (CL7008)
  -Log (GI50): 5.7
[2]; Leukemia K562(I) CL7005
  -Log (GI50): 4.6
[2]; Leukemia MOLT-4 (CL7006)
  -Log (GI50): 6.0
[2]; Leukemia RPMI-8226(I) (CL7010)
  -Log (GI50): 5.4
[2]; Leukemia SR CL7019
  -Log (GI50): 6.7
[2]; Melanoma LOX IMVI CL10001
  -Log (GI50): 5.3
[2]; Melanoma M14 (CL10014)
  -Log (GI50): 6.1
[2]; Melanoma MALME-3M CL10002
  -Log (GI50): 4.7
[2]; NCSLC NCI-H522 CL1003
  -Log (GI50): 5.1
[2]; NSCLC NCI-H23(I) CL1001
  -Log (GI50): 5.1
[2]; NSCLC NCI-H332M CL1017
  -Log (GI50): 3.8
[2]; NSCLC NCI-H460 CL1021
  -Log (GI50): 6.0
[2]; Ovarian IGROV1 CL6010
  -Log (GI50): 4.2
[2]; Ovarian OVCAR-3 CL6001
  -Log (GI50): 4.2
[2]; Ovarian OVCAR-4 CL6002
  -Log (GI50): 3.8
[2]; Ovarian OVCAR-5 CL6003
  -Log (GI50): 4.3
[2]; Ovarian OVCAR-8 CL6005
  -Log (GI50): 4.8
[2]; Ovarian SK-OV-3 CL6011
  -Log (GI50): 4.5
[2]; Prostate DU-145 CL11003
  -Log (GI50): 6.1
[2]; Prostate PC-3(I) CL11001
  -Log (GI50): 6.2
[2]; Renal 786-O CL9018
  -Log (GI50): 5.9
[2]; Renal A498 CL9013
  -Log (GI50): 4.7
[2]; Renal ACHN CL9023
  -Log (GI50): 6.1
[2]; Renal CAKI-1 CL9015
  -Log (GI50): 5.2
[2]; Renal RXF-393 CL9016
  -Log (GI50): 4.8
[2]; Renal SN12C CL9008
  -Log (GI50): 5.0
[2]; Renal TK10 CL9024
  -Log (GI50): 5.3
[2]; Renal UO-31 CL9004
  -Log (GI50): 4.1
